# The source made the active and inactive calls. The calls are words filed in the database; no cut-off is given here.
# Legend:
# HCT-116 [1] = test: Induction of spliceosome function impairment in human HCT-116 cells assessed as increase in PRPF38A RI transcript at 1 to 10 uM incubated for 12 hrs by qRT-PCR analysis; type: functional, cell-based; conditions: dose 1-10 µM
# HCT-116 [2] = test: Induction of spliceosome function impairment in human HCT-116 cells assessed as increase in NCKAP1L RI transcript at 1 to 10 uM incubated for 12 hrs by qRT-PCR analysis; type: functional, cell-based; conditions: dose 1-10 µM
# HCT-116 [3] = test: Induction of spliceosome function impairment in human HCT-116 cells assessed as decrease in ZNF207 exon8-exon9 RNA level at 1 to 10 uM incubated for 12 hrs by qRT-PCR analysis; type: functional, cell-based; conditions: dose 1-10 µM
# HCT-116 [4] = test: Antitumor activity against human HCT-116 cells xenografted in BALB/c nude mouse at 50 mg/kg, po bid treated for 17 days relative to control; type: functional; conditions: HCT-116, 408 h, time 17 day, read-out: TGI
# Kasumi 1 [5] = test: Antiproliferative activity against human Kasumi 1 cells assessed as inhibition of cell growth incubated for 4 days by CCK8 assay; type: functional, cell-based; conditions: time 4.0 day
# Kasumi 1 [6] = test: Effect on RNA splicing in human Kasumi 1 cells assessed as CEP192 gene retention of introns incubated for 12 hrs by PCR analysis; type: functional, cell-based; conditions: dose 0.1-10 µM
# RS4;11 = test: Induction of RBM39 degradation in human RS4;11 cells incubated for 24 hrs by Western blot analysis; type: cell-based
# [7] = Cmax in ICR mouse at 15 mg/kg, po; type: ADME, organism-based; conditions: in vivo
# HCT-116 [8] = test: Induction of spliceosome function impairment in human HCT-116 cells assessed as fold increase in NCKAP1L RI transcript at 1 to 10 uM incubated for 12 hrs by qRT-PCR analysis relative to control; type: functional; conditions: dose 1-10 µM
# HCT-116 [9] = test: Effect on RNA splicing in human HCT-116 cells assessed as CEP192 gene skipping exons incubated for 12 hrs by PCR analysis; type: functional, cell-based; conditions: dose <= 10.0 µM
# HCT-116 [10] = test: Induction of spliceosome function impairment in human HCT-116 cells assessed as fold decrease in ZNF207 exon8-exon9 RNA level at 1 to 10 uM incubated for 12 hrs by qRT-PCR analysis relative to control; type: functional; conditions: dose 1-10 µM
# K562 [11] = test: Effect on RNA splicing in human K562 cells assessed as CEP192 gene retention of introns incubated for 12 hrs by PCR analysis; type: functional, cell-based; conditions: dose 0.1-10 µM
# CEM/C1 [12] = test: Effect on RNA splicing in human CEM/C1 cells assessed as CEP192 gene retention of introns incubated for 12 hrs by PCR analysis; type: functional, cell-based; conditions: dose 0.1-10 µM
# HCT-116 [13] = test: Induction of cell cycle arrest in human HCT-116 cells assessed as accumulation at G2/M phase at 1 uM incubated for 24 hrs by PI staining based flow cytometry relative to control; type: functional
# CEM/C1 [14] = test: Antiproliferative activity against human CEM/C1 cells assessed as inhibition of cell growth incubated for 4 days by CCK8 assay; type: functional, cell-based; conditions: time 4.0 day
# K562 [15] = test: Antiproliferative activity against human K562 cells assessed as inhibition of cell growth incubated for 4 days by CCK8 assay; type: functional, cell-based; conditions: time 4.0 day
# MOLM-13 [16] = test: Induction of RBM39 degradation in human MOLM-13 cells incubated for 24 hrs by Western blot analysis; type: cell-based
# HL-60 [17] = test: Induction of RBM39 degradation in human HL-60 cells incubated for 24 hrs by Western blot analysis; type: cell-based
# [18] = Effect on RNA splicing in human K562 cells assessed as number of retention of introns at 2 uM incubated for 12 hrs by RNA-seq analysis; type: functional
# CEM/C1 [19] = test: Effect on RNA splicing in human CEM/C1 cells assessed as CEP192 gene skipping exons incubated for 12 hrs by PCR analysis; type: functional, cell-based; conditions: dose 0.1-10 µM
# HL-60 [20] = test: Effect on RNA splicing in human HL-60 cells assessed as CEP192 gene skipping exons incubated for 12 hrs by PCR analysis; type: functional, cell-based; conditions: dose 0.1-10 µM
# K562 [21] = test: Induction of RBM39 degradation in human K562 cells incubated for 24 hrs by Western blot analysis; type: cell-based; conditions: dose 1-10 µM
# [22] = Effect on RNA splicing in human K562 cells assessed as mutually exclusive exons at 2 uM incubated for 12 hrs by RNA-seq analysis relative to control; type: functional
# HCT-116 [23] = test: Effect on RNA splicing in human HCT-116 cells assessed as CEP192 gene retention of introns incubated for 12 hrs by PCR analysis; type: functional, cell-based; conditions: dose <= 10.0 µM
# [24] = Effect on RNA splicing in human K562 cells assessed as number of alternative 5' splice sites at 2 uM incubated for 12 hrs by RNA-seq analysis; type: functional
# [25] = Effect on RNA splicing in human K562 cells assessed as number of mutually exclusive exons at 2 uM incubated for 12 hrs by RNA-seq analysis; type: functional
# Kasumi 1 [26] = test: Effect on RNA splicing in human Kasumi 1 cells assessed as CEP192 gene skipping exons incubated for 12 hrs by PCR analysis; type: functional, cell-based; conditions: dose 0.1-10 µM
# HL-60 [27] = test: Effect on RNA splicing in human HL-60 cells assessed as CEP192 gene retention of introns incubated for 12 hrs by PCR analysis; type: functional, cell-based; conditions: dose 0.1-10 µM
# HCT-116 [28] = test: Induction of cell cycle arrest in human HCT-116 cells assessed as accumulation at G2/M phase at 1 uM incubated for 72 hrs by PI staining based flow cytometry relative to control; type: functional
# HCT-116 [29] = test: Antitumor activity against human HCT-116 cells xenografted in BALB/c nude mouse at 150 mg/kg, po qd treated for 17 days relative to control; type: functional; conditions: HCT-116, 408 h, time 17 day, read-out: TGI
# MOLM-13 [30] = test: Antiproliferative activity against human MOLM-13 cells assessed as inhibition of cell growth incubated for 4 days by CCK8 assay; type: functional, cell-based; conditions: time 4.0 day
# HCT-116 [31] = test: Effect on RNA splicing in human HCT-116 cells assessed as CEP192 gene retention of introns at 2 uM incubated for 12 hrs by RNA-seq analysis; type: functional, cell-based
# [32] = Effect on RNA splicing in human K562 cells assessed as retention of introns at 2 uM incubated for 12 hrs by RNA-seq analysis relative to control; type: functional
# [33] = Effect on RNA splicing in human K562 cells assessed as number of alternative 3' splice sites at 2 uM incubated for 12 hrs by RNA-seq analysis; type: functional
# HCT-116 [34] = test: Effect on RNA splicing in human HCT-116 cells assessed as CEP192 gene skipping exons up to 10 uM by PCR analysis; type: functional, cell-based; conditions: time 1-24 hrs
# RS4-11 = test: Antiproliferative activity against human RS4;11 cells assessed as inhibition of cell growth incubated for 4 days by CCK8 assay; type: functional, cell-based; conditions: time 4.0 day
# HCT-116 [35] = test: Effect on DCAF15 expression in human HCT-116 cells at 0.1 to 5 uM incubated for 24 hrs by Western blot analysis; type: functional, cell-based; conditions: dose 0.1-5 µM
# MV4-11 [36] = test: Induction of RBM39 degradation in human MV4-11 cells incubated for 24 hrs by Western blot analysis; type: cell-based
# Kasumi 1 [37] = test: Induction of RBM39 degradation in human Kasumi 1 cells incubated for 24 hrs by Western blot analysis; type: cell-based
# MV4-11 [38] = test: Antiproliferative activity against human MV4-11 cells assessed as inhibition of cell growth incubated for 4 days by CCK8 assay; type: functional, cell-based; conditions: time 4.0 day
# [39] = AUC (0 to t) in ICR mouse at 15 mg/kg, po; type: ADME, organism-based; conditions: in vivo
compound,measurement,setting,value
NS(=O)(=O)c1ccc(S(=O)(=O)Nc2cccc3c(Cl)c[nH]c23)cc1 [INDISULAM],Activity,HCT-116 [1],Active
same,Activity,HCT-116 [2],Active
same,Activity,HCT-116 [3],Active
Cc1ccc(NS(=O)(=O)c2cccc(NC(=O)C(=O)N3CCC[C@@H]3CO)c2)c2[nH]cc(C#N)c12,inhibition in vivo at 50 mg/kg,HCT-116 [4],35%
same,inhibition,Kasumi 1 [5],Active
same,Activity,Kasumi 1 [6],Dose-dependent-effect; Observed Retention Of Introns Between Exons 27 And 28
same,Activity,RS4;11,Dose-dependent-effect
same,Cmax,[7],2120 ng/mL
same,fold change (FC),HCT-116 [8],3
same,Activity,HCT-116 [9],"Dose-dependent-effect; Observed Skipping Of Exons 42, 28 And 13"
same,fold change (FC),HCT-116 [10],10
same,Activity,K562 [11],Dose-dependent-effect; Observed Retention Of Introns Between Exons 27 And 28
same,Activity,CEM/C1 [12],Dose-dependent-effect; Observed Retention Of Introns Between Exons 27 And 28
same,Activity,HCT-116 [13],33%
same,inhibition,CEM/C1 [14],Active
same,inhibition,K562 [15],Active
same,Activity,MOLM-13 [16],Dose-dependent-effect
same,Activity,HL-60 [17],Dose-dependent-effect
same,Activity,[18],1454
same,Activity,CEM/C1 [19],"Dose-dependent-effect; Observed Skipping Of Exons 42, 28 And 13"
same,Activity,HL-60 [20],"Dose-dependent-effect; Observed Skipping Of Exons 42, 28 And 13"
same,Activity,K562 [21],Dose-dependent-effect
same,Activity,[22],10.3%
same,Activity,HCT-116 [23],Dose-dependent-effect; Observed Retention Of Introns Between Exons 27 And 28
same,Activity,[24],633
same,Activity,[25],1801
same,Activity,Kasumi 1 [26],"Dose-dependent-effect; Observed Skipping Of Exons 42, 28 And 13"
same,Activity,HL-60 [27],Dose-dependent-effect; Observed Retention Of Introns Between Exons 27 And 28
same,Activity,HCT-116 [28],66%
same,inhibition in vivo at 150 mg/kg,HCT-116 [29],72%
same,inhibition,MOLM-13 [30],Active
same,Activity,HCT-116 [31],Active; Observed Retention Of Introns Between Exons 27 And 28
same,Activity,[32],8.4%
same,Activity,[33],1232
same,Activity,HCT-116 [34],"Time-dependent-effect; Observed Skipping Of Exons 42, 28 And 13"
same,inhibition,RS4-11,Active
same,Activity,HCT-116 [35],inactive
same,Activity,MV4-11 [36],Dose-dependent-effect
same,Activity,Kasumi 1 [37],Dose-dependent-effect
same,inhibition,MV4-11 [38],Active
same,AUC(0-t),[39],3480 ng·h/mL
